Source: patent publication US20150057346A1, “METHODS OF MAINTAINING INTRAMUSCULAR MYOGLOBIN LEVELS, MAINTAINING MAXIMAL AEROBIC CAPACITY, AND ENHANCING THE OXIDATIVE CAPACITY OF MUSCLE IN A SUBJECT” (ABBOTT LABORATORIES, priority 2013, published 2015)

Experiments:
Myoglobin = test: Serum myoglobin levels before and after 10 days of bed rest (clinical study, RBM Human DiscoveryMAP); type: in vivo
Protocol: Example 3 describes a clinical study that was conducted to evaluate the effects of 10 days of bed rest on healthy elderly subjects. The exemplary methods are based, at least in part, on inventors' discovery that serum myoglobin levels change by statistically significant amounts in 18 healthy elderly subjects undergoing 10 days of bed rest. The exemplary methods are also based, at least in part, on inventors' discovery that intervention with HMB altered the change in serum myoglobin levels.
(§1) The 24 healthy subjects initially involved in the study were randomized into two groups. Subjects in the treatment group received two β-hydroxy-β-methylbutyrate (HMB) sachets containing 1.5 grams of Ca-HMB (TSI, Salt Lake City, Utah), 4 grams of maltodextrin, and 200 milligrams of calcium with additional sweetener and flavoring agents. Subjects in the control group received two control sachets that were identical to the HMB sachets with the exclusion Ca-HMB. This study was a double-blinded study. Neither the investigators nor the subjects were informed of the identity of any of the study products during the clinical portion of the study. Subjects were instructed to consume a sachet twice daily by mixing a sachet into a non-caloric, non-caffeinated, non-carbonated, non-milk-based beverage of their choice. Treatment with HMB or Control was initiated 5 days prior to bed rest and was continued until the end of the 10 day bed rest period.
After a diet stabilization of 5 days (ambulatory period), subjects remained in bed continuously for 10 days. While confined to bed rest, subjects were allowed to use the bedside commode for urination or were taken in a wheelchair for toileting. Subjects were given the option of taking a sponge bath or showering in a wheelchair. Prophylactic measures were taken to detect and prevent deep vein thrombosis including a blood D-dimer test followed by an ultrasound examination if D-dimer test was positive, passive range of motion exercise during bed rest, the use of TED hose and SCD over the bed rest period. Subjects were offered medication to help mitigate reflux problems associated with being supine. Subjects were constantly monitored by nursing staff and received a daily physical examination by the study physician.
Fasted blood samples were collected from subjects on Day 1 of bed rest and at the end of bed rest for measurement of biomarkers, including myoglobin.
Rules Based Medicine (Myriad RBM, Inc., Austin, Tex.) data generated from the RBM Human DiscoveryMAP v1.0 consists of n=187 biomarkers measured in serum collected at two time points, pre-bed rest and post-bed rest from 18 elderly subjects. The distribution of each marker was evaluated. Each marker has a least detectable dose (LDD) value, defined as the mean+3 standard deviations (SD) of 20 blank samples. For any subject whose marker result was <LDD, the LDD value as provided by RBM was imputed. If the marker result was >LDD, the original result was used. Any marker in which >30% of all subject's results were imputed was excluded from further statistical analyses. Of the initial n=187 RBM markers, n=63 markers from the RBM dataset were excluded from further analyses, leaving n=124 markers for evaluation.
The Control group was examined to determine the biomarkers that changed over bed rest. Individual univariate dependent t-tests were performed on each of the 124 markers. There were a total of 8 participants who had matched data over bed rest within the Control group.
In order to assess the changes in the markers over bed rest that may be mediated by HMB intervention, individual univariate ANCOVA analyses were subsequently performed on each of the 13 (unadjusted) significant markers from the multiple dependent t-tests. Using a Bonferonni adjusted p-value of 0.0038 (0.05/13), 10 markers, including myoglobin, were significant.

[1] = Body composition (lean mass by DXA) over 10 days of bed rest (clinical study); type: in vivo, human; details: over 10 day bed rest, healthy elderly subjects
Source text: as §1, with “Subjects were instructed to consume a sachet twice daily by mixing a sachet into a non-caloric, non-caffeinated, non-carbonated, non-milk-based beverage of their choice. Treatment with HMB or Control was initiated 5 days prior to bed rest and was continued until the end of the 10 day bed rest period.” left out
After a diet stabilization of 5 days (ambulatory period), subjects remained in bed continuously for 10 days. […] Subjects were constantly monitored by nursing staff and received a daily physical examination by the study physician.
Body weight was measured at baseline and after bed rest to the nearest 0.1 kilogram on an Ohaus scale (Ohaus Corporation, model 15S, Florham Park, N.J.). Nude body weight was calculated as total body weight minus hospital robe weight. Body height was measured to the nearest 0.1 cm without shoes using a stadiometer. Body mass index (BMI) was calculated as weight/height^2 (kg/m^2). […]

[2] = 10 subjects treated with HMB, after 10 days of bed rest
[3] = serum, pre- to post-bed rest (10 days), n = 10

Question: With `CC(C)(O)CC(=O)O` [HMB, β-hydroxy-β-methylbutyrate] as the compound, how does the “average decrease in blood levels of myoglobin” value (Myoglobin; [2]) read?
Answer: 10.2 ng/mL

Question: What about the “decrease in blood levels of myoglobin (percent)” value (Myoglobin; [2]) of the same compound?
Answer: 19%

Question: And the “Myoglobin Pre-bed rest Mean” value (Myoglobin; serum, healthy elderly subjects, n = 10, 1.5 g Ca-HMB sachet twice daily from 5 days prior to bed rest, Day 1 of bed rest)?
Answer: 49.3 ng/mL

Question: What about the “Myoglobin Post-bed rest Mean” value (Myoglobin; serum, healthy elderly subjects, n = 10, 1.5 g Ca-HMB sachet twice daily, end of 10 day bed rest) of the same compound?
Answer: 39.1 ng/mL

Question: And the “Myoglobin % Change” value (Myoglobin; [3])?
Answer: −19 ± 6%

Question: And the “Myoglobin Change” value (Myoglobin; [3])?
Answer: -10.2 ± 6.4 ng/mL

Question: What about the “average loss of total lean mass” value ([1]; p=0.42 paired t-test) of the same compound?
Answer: -0.17 ± 0.19 kg

Question: And the “average loss of leg lean mass” value ([1]; p=0.65 paired t-test)?
Answer: -0.08 ± 0.17 kg
